Data as given in the supplement of paper PMC10307832.

Columns and labels:
Test in all cases: relative viability (nuclei count vs DMSO), 5 days (fraction); higher = more cells survive
BAY61-3606 + Crizotinib = compound: COC1=C(C=C(C=C1)C2=CC3=NC=CN3C(=N2)NC4=C(C=CC=N4)C(=O)N)OC [BAY61-3606] + C[C@@H](Oc1cc(-c2cnn(C3CCNCC3)c2)cnc1N)c1c(Cl)ccc(F)c1Cl [Crizotinib] (partner 1 µM)
In short: (§1)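 Lung cancer cell lines were pin-tool dosed in 1536-well plates on the day after seeding, with either a lone drug or a fixed anchor-drug dose plus five library-drug doses (not always all listed) in √10 steps. Nuclei were counted on 4× images after 5 days. Relative viability is the ratio of treated-well to vehicle-well nuclei counts, with each value a median of duplicate plates.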

BAY61-3606 + Decitabine = compound: COC1=C(C=C(C=C1)C2=CC3=NC=CN3C(=N2)NC4=C(C=CC=N4)C(=O)N)OC [BAY61-3606] + Nc1ncn([C@H]2C[C@H](O)[C@@H](CO)O2)c(=O)n1 [Decitabine] (partner 2 µM)
In short: as §1

Doxorubicin + Tozasertib = compound: COc1cccc2c1C(=O)c1c(O)c3c(c(O)c1C2=O)C[C@@](O)(C(=O)CO)C[C@@H]3O[C@H]1C[C@H](N)[C@H](O)[C@H](C)O1 [Doxorubicin] + Cc1cc(Nc2cc(N3CCN(C)CC3)nc(Sc3ccc(NC(=O)C4CC4)cc3)n2)n[nH]1 [Tozasertib] (partner 0.1 µM)
In short: as §1

Doxorubicin + Vorinostat = compound: COc1cccc2c1C(=O)c1c(O)c3c(c(O)c1C2=O)C[C@@](O)(C(=O)CO)C[C@@H]3O[C@H]1C[C@H](N)[C@H](O)[C@H](C)O1 [Doxorubicin] + O=C(CCCCCCC(=O)Nc1ccccc1)NO [Vorinostat] (partner 1 µM)
In short: as §1

Cell Line | relative viability (BAY61-3606 + Crizotinib; first compound 0.02 µM) | relative viability (BAY61-3606 + Crizotinib; first compound 0.06325 µM) | relative viability (BAY61-3606 + Crizotinib; first compound 0.2 µM) | relative viability (BAY61-3606 + Crizotinib; first compound 0.6325 µM) | relative viability (BAY61-3606 + Crizotinib; first compound 2 µM) | relative viability (BAY61-3606 + Decitabine; first compound 0.02 µM) | relative viability (BAY61-3606 + Decitabine; first compound 0.06325 µM) | relative viability (BAY61-3606 + Decitabine; first compound 0.2 µM) | relative viability (BAY61-3606 + Decitabine; first compound 0.6325 µM) | relative viability (BAY61-3606 + Decitabine; first compound 2 µM) | relative viability (Doxorubicin + Tozasertib; first compound 0.001 µM) | relative viability (Doxorubicin + Tozasertib; first compound 0.003162 µM) | relative viability (Doxorubicin + Tozasertib; first compound 0.01 µM) | relative viability (Doxorubicin + Tozasertib; first compound 0.03162 µM) | relative viability (Doxorubicin + Tozasertib; first compound 0.1 µM) | relative viability (Doxorubicin + Vorinostat; first compound 0.001 µM) | relative viability (Doxorubicin + Vorinostat; first compound 0.003162 µM) | relative viability (Doxorubicin + Vorinostat; first compound 0.01 µM) | relative viability (Doxorubicin + Vorinostat; first compound 0.03162 µM) | relative viability (Doxorubicin + Vorinostat; first compound 0.1 µM)
HCC-78 | 0.385 | 0.308 | 0.317 | 0.343 | 0.367 | 0.643 | 0.676 | 0.798 | 0.722 | 0.857 | 0.491 | 0.44 | 0.403 | 0.353 | 0.388 | 0.445 | 0.481 | 0.407 | 0.51 | 0.414
HOP-62 | 0.928 | – | 0.823 | 1.06 | 0.716 | – | 0.2 | 0.228 | 0.266 | 0.22 | 0.376 | 0.414 | 0.402 | 0.352 | 0.405 | 0.515 | 0.605 | 0.599 | 0.538 | 0.572
NCI-H1623 | – | – | – | – | – | – | – | – | – | – | 0.489 | 0.426 | 0.417 | 0.39 | 0.445 | – | – | – | – | –
NCI-H3122 | 0.252 | 0.286 | 0.279 | 0.272 | 0.219 | 0.463 | 0.559 | 0.494 | 0.347 | 0.511 | 0.339 | 0.375 | 0.335 | 0.169 | 0.141 | 0.839 | 0.982 | 0.853 | 0.907 | 0.998
NCI-H1666 | 1.13 | – | 0.782 | 0.968 | 0.969 | 0.784 | 0.655 | 0.658 | 0.737 | 0.686 | 0.62 | 0.547 | 0.47 | 0.385 | 0.343 | – | 1.1 | 0.972 | 0.808 | 0.806
HARA | 1.08 | 1.08 | 1.06 | 1.07 | 0.892 | 0.515 | 0.512 | 0.67 | 0.688 | 0.585 | 0.112 | 0.126 | 0.241 | 0.128 | 0.145 | 0.593 | 0.482 | 0.547 | 0.589 | 0.432
NCI-H1651 | 0.882 | 0.873 | 0.846 | 0.869 | 0.777 | 0.621 | 0.539 | 0.555 | 0.568 | 0.481 | 0.643 | 0.793 | 0.648 | 0.319 | 0.157 | 0.572 | 0.591 | 0.569 | 0.533 | 0.495
NCI-H1395 | – | – | – | – | – | 0.824 | 0.709 | 0.799 | 0.661 | 0.686 | 0.791 | 0.724 | 0.89 | 0.65 | 0.799 | 0.551 | 0.688 | 0.825 | 0.572 | 0.493
SK-LU-1 | 1.08 | 0.853 | 0.904 | 0.889 | 0.398 | 0.715 | 0.725 | 0.575 | 0.621 | 0.428 | 0.318 | 0.326 | 0.288 | 0.173 | 0.179 | 0.719 | 0.87 | 0.674 | 0.494 | 0.461
